Columns and labels:
[1] = Amino carbonyl reaction with polypeptone; format: physicochemical; conditions: 10% (w/v) with 5% (w/v) polypeptone, 100° C., minus the control
Method: Four milliliters of the resulting solution were placed in a glass test tube, sealed, and heated at 100° C. for 30 to 90 min. After allowing to stand for cooling at ambient temperature, each of the resulting solutions was measured for coloration degree to examine on their amino carbonyl reactivity. In parallel, as a control, a solution with only polypeptone was provided and similarly treated as above. The coloration degree was evaluated based on the level of the absorbance, measured in a cell with 1-cm light pass at a wavelength of 480 nm, minus the control.

[2] = system: Escherichia coli IFO 3301; assay: Assimilation test, Escherichia coli; format: cell-based; conditions: PYF medium with 0.5% saccharide, 37° C., four days, anaerobic
[3] = system: Small intestinal mucosal enzyme
[4] = Thermostability of aqueous cyclotetrasaccharide solution; format: physicochemical; conditions: 10% (w/v) aqueous solution, 120° C.; for Purity (%) after heating: HPLC
Method: After the heating, the aqueous solution was cooled under atmospheric conditions and measured for coloration degree and determined for purity on HPLC. The coloration degree was evaluated based on the absorbance in a cell with a 1-cm light pass at a wavelength of 480 nm.

[5] = system: Eubacterium aerofaciens ATCC 25986; assay: Assimilation test, Eubacterium aerofaciens; format: cell-based; conditions: PYF medium with 0.5% saccharide, 37° C., four days, anaerobic
[6] = system: α-isomaltosylglucosaccharide-forming enzyme; assay: Action on saccharides (substrates), Enzyme of Strain C9; format: biochemical, Bacillus globisporus C9; parameters: key: −: it showed no change; +: it showed a slight reduction of the color spot of the substrate and the formation of other reaction product; ++: it showed a high reduction of the color spot of the substrate and the formation of other reaction product; +++: it showed a substantial disappearance of the substrate spot and the formation of other reaction product; conditions: two units/g substrate, substrate 2% (w/v), 30° C., pH 6.0, 24 hours, TLC
Procedure, shortened: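 Purified enzyme from each strain was added at 2 units/g substrate to each of 24 saccharides at 2% (w/v). Incubation ran 24 h at 30° C, pH 6.0, or pH 8.4 for the A19 enzyme. TLC compared reaction mixtures before and after incubation to show whether each substrate was acted on.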

[7] = system: α-isomaltosylglucosaccharide-forming enzyme; assay: Transfer-acceptor specificity, Enzyme of Strain N75; format: biochemical, Bacillus globisporus N75; conditions: acceptor 1.6%, PINE-DEX #100 donor 4%, one unit/g donor, 30° C., pH 6.0, 24 hours
Procedure, shortened: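 Each candidate acceptor at 1.6% was combined with 4% partial starch hydrolysate donor and 1 unit/g donor (d.s.b.) of purified enzyme. Incubation ran 24 h at 30 °C, pH 6.0 for the C9, C11 and N75 enzymes and pH 8.4 for A19. Transfer products were detected by GLC for mono- and disaccharide acceptors and HPLC for trisaccharide acceptors.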

Structure (SMILES)	Coloration degree (A480 nm) ([1]; heating time 0 min)	Coloration degree (A480 nm) ([1]; heating time 30 min)	Coloration degree (A480 nm) ([1]; heating time 60 min)	Coloration degree (A480 nm) ([1]; heating time 90 min)	Assimilability [2]	Decomposition percentage (%) by digestive enzyme [3]	digestibility relative to that of maltitol [3]	Coloration degree (A480 nm) ([4]; heating time 0 min)	Purity (%) after heating ([4]; heating time 0 min)	Coloration degree (A480 nm) ([4]; heating time 30 min)	Purity (%) after heating ([4]; heating time 30 min)	Coloration degree (A480 nm) ([4]; heating time 60 min)	Purity (%) after heating ([4]; heating time 60 min)	Coloration degree (A480 nm) ([4]; heating time 90 min)	Purity (%) after heating ([4]; heating time 90 min)	Assimilability [5]	Enzymatic action, Enzyme of Strain C9 [6]	Product of transferring reaction, Enzyme of Strain N75 [7]
OCC1OC2OCC3O[C@H](O[C@H]4C(O)C(CO)OC(OCC5O[C@H](O[C@@H](C1O)C2O)C(O)C(O)[C@@H]5O)C4O)C(O)C(O)[C@@H]3O (stereo partly drawn) [Cyclotetrasaccharide, cyclo{→6)-α-D-glucopyranosyl-(1→3)-α-D-glucopyranosyl-(1→6)-α-D-glucopyranosyl-(1→3)-α-D-glucopyransoyl-(1→}]	0.00 A480 nm	0.00 A480 nm	0.00 A480 nm	0.00 A480 nm	− (judged negative (−) when the post culture had a pH of 6.0 or higher)	0.74%	⅕	0.00 A480 nm	100%	0.00 A480 nm	100%	0.00 A480 nm	100%	0.00 A480 nm	100%	− (judged negative (−) when the post culture had a pH of 6.0 or higher)		
OC[C@@H](O)[C@@H](O[C@H]1O[C@H](CO)[C@@H](O)[C@H](O)[C@H]1O)[C@H](O)[C@@H](O)CO [Maltitol, reference compound]																	−	++ (a saccharide-transferred product was detected in an amount over ten percent through transfer reaction to acceptor)
